≈ marks a conversion by molar mass, not a printed value. Calls of active or inactive are those of the source. The calls are words filed in the database; no cut-off is given here.
Experiments:
[1] = molecular target: T1, L-2,3-diaminopropanoate--citrate ligase (Staphylococcus aureus (strain NCTC 8325 / PS 47), UniProt Q2G1M9); assay: Inhibition of Staphylococcus aureus SbnE incubated for 1 hr by malachite green staining based microplate reader analysis
T1 sequence (Q2G1M9 whole entry): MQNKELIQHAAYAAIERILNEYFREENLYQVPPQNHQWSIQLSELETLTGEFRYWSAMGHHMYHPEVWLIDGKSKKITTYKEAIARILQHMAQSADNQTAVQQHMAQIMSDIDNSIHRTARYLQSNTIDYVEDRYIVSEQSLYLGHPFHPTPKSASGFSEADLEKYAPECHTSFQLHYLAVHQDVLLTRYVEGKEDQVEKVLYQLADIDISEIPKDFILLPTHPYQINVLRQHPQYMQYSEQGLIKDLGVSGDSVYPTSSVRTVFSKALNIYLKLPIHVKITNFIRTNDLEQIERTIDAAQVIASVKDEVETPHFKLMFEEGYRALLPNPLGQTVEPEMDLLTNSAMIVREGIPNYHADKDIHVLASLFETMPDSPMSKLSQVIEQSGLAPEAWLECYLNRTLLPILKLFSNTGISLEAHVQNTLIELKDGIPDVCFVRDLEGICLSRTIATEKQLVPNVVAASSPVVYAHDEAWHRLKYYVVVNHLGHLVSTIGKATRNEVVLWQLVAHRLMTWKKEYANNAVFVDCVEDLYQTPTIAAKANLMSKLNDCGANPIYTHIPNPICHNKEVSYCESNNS

[2] = molecular target: T2, L-2,3-diaminopropanoate--citrate ligase (Staphylococcus aureus (strain NCTC 8325 / PS 47)) (UniProt Q2G1M9); assay: Inhibition of Staphylococcus aureus SbnE at 50 uM incubated for 1 hr by malachite green staining based microplate reader analysis relative to control
T2 sequence (whole entry): T1 sequence (Q2G1M9 whole entry)

Staphylococcus aureus [3] = assay: Antibacterial activity against methicillin resistant Staphylococcus aureus CCARM3167 assessed as inhibition in bacterial growth incubated for 18 hrs by microdilution method; assay type: functional
Staphylococcus aureus [4] = assay: Antibacterial activity against […] Staphylococcus aureus ATCC25923 assessed as inhibition in bacterial growth incubated for 18 hrs by microdilution method; assay type: functional
Cell membrane = assay: Induction of membrane disruption in methicillin resistant Staphylococcus aureus CCARM3167 at MIC incubated for 30 mins PI staining based Flow cytometry
Staphylococcus aureus [5] = assay: Antibacterial activity against quinolone-resistant Staphylococcus aureus CCARM3505 assessed as inhibition of bacterial growth incubated for 18 hrs by microdilution method; assay type: functional
Bacillus cereus = assay: Antibacterial activity against Bacillus cereus ATCC27348 assessed as inhibition of bacterial growth incubated for 18 hrs by microdilution method; assay type: functional
[6] = Antibacterial activity against Bacillus subtilis ATCC6633 assessed as inhibition of bacterial growth incubated for 18 hrs by microdilution method; assay type: functional, Bacillus subtilis […]
Escherichia coli = assay: Antibacterial activity against Escherichia coli MC1061 assessed as inhibition of bacterial growth incubated for 18 hrs by microdilution method; assay type: functional
Salmonella typhimurium = assay: Antibacterial activity against Salmonella typhimurium ATCC14028 assessed as inhibition of bacterial growth incubated for 18 hrs by microdilution method; assay type: functional, Salmonella enterica subsp. enterica serovar Typhimurium; conditions: Salmonella enterica
Staphylococcus aureus [7] = assay: Antibacterial activity against methicillin resistance Staphylococcus aureus assessed as reduction in biofilm formation at 1/2 times MIC incubated 24 hrs by crystal violet staining based microplate reader analysis; assay type: functional, organism-based
Staphylococcus aureus [8] = assay: Antibacterial activity against methicillin resistance Staphylococcus aureus CCARM3167 assessed as inhibition of siderophore production at 1/4 times MIC incubated for 18 hrs by CAS liquid assay; assay type: functional, organism-based
Staphylococcus aureus [9] = assay: Antibacterial activity against Staphylococcus aureus ATCC25923 assessed as inhibition of siderophore production at 1/2 times MIC incubated for 18 hrs by CAS liquid assay; assay type: functional, organism-based

Structure (SMILES)	IC50 [1] [µM]	inhibition [2] [%]	MIC (Staphylococcus aureus [3]) [µg/mL]	MIC (Staphylococcus aureus [4]) [µg/mL]	Activity (Cell membrane)	MIC (Staphylococcus aureus [5]) [µg/mL]	MIC (Bacillus cereus) [µg/mL]	MIC [6] [µg/mL]	MIC (Escherichia coli) [µg/mL]	MIC (Salmonella typhimurium) [µg/mL]	Activity (Staphylococcus aureus [7])	Activity (Staphylococcus aureus [8])	Activity (Staphylococcus aureus [9])
Cc1ccc(NCC[C@@H](O)[C@@H](CC(C)C)[C@@H](O)c2cc(O)cc(O)c2)c(Cl)c1	4.12	89.2	32 (≈ 78.4 µM)	16 (≈ 39.2 µM)	Active	64 (≈ 157 µM)	> 256	> 256	> 256	> 256	Active	–	–
CC(C)C[C@H]([C@H](O)CCNCc1ccccc1)[C@@H](O)c1cc(O)cc(O)c1	3.45	97.1	> 256	> 256	–	–	–	–	–	–	–	inactive	inactive
CC(C)C[C@H]([C@H](O)CCN)[C@@H](O)c1cc(O)cc(O)c1	1.81	97.2	> 256	> 256	–	–	–	–	–	–	–	inactive	inactive
CC(C)C[C@@H]([C@H](O)C[C@H](O)CCCCCCCCNCc1ccccc1)[C@@H](O)c1cc(O)cc(O)c1	41.1	57.9	0.5 (≈ 0.997 µM)	2 (≈ 3.99 µM)	Active	0.5 (≈ 0.997 µM)	1 (≈ 1.99 µM)	4 (≈ 7.97 µM)	0.25 (≈ 0.498 µM)	4 (≈ 7.97 µM)	Active	inactive	inactive
CC(C)C[C@H]([C@H](O)C[C@H](O)C#C[C@@H](C)C[C@H](C)C[C@@H](C)COCc1ccccc1)[C@@H](O)c1cc(O)cc(O)c1	5.49	71.7	4 (≈ 7.4 µM)	8 (≈ 14.8 µM)	Active	16 (≈ 29.6 µM)	> 256	> 256	> 256	> 256	Active	–	–
C[C@@H](COCc1ccccc1)C[C@H](C)C[C@H](C)C#CC(O)C[C@@H](O)c1cc(O)cc(O)c1 (stereo partly drawn)	8.94	76.4	256 (≈ 581 µM)	128 (≈ 291 µM)	Active	128 (≈ 291 µM)	64 (≈ 145 µM)	> 256	> 256	> 256	Active	–	–

From ChEMBL document CHEMBL5625182, “Synthesis and antibacterial activities of baulamycin A inspired derivatives” (Eur J Med Chem, 2023)
